Experimental findings from US20240285631A1, “METHODS OF TREATING VASCULAR MALFORMATIONS” (priority 2023, published 2024) are described below.

The test system of the test is human umbilical vein endothelial cells. As to the kind of experiment: Proliferation of human umbilical vein endothelial cells assessed by EdU uptake. Format: cell-based. The following applies: in vitro, dose response. The text has this:
FIG. 16 illustrates palbociclib, CVT-313 and ribociclib dose response effects on proliferation of human umbilical vein endothelial cells assessed by EdU uptake.
This example discusses that endothelial cell cycle dysregulation is a mechanism involved in the development of arterio-venous malformations in HHT, as well as other types of vascular malformations named above. Palbociclib, a FDA-approved cell cycle inhibitor, could be used to prevent arterio-venous and other malformations, including venous, capillary, lymphatic and cerebral cavernous malformations.

Each structure is given as a SMILES string.

On to `COc1ccc(CNc2nc(N(CCO)CCO)nc3c2ncn3C(C)C)cc1` [CVT-313, 2-[2-hydroxyethyl-[6-[(4-methoxyphenyl)methylamino]-9-propan-2-ylpurin-2-yl]amino]ethanol], for which the “EC proliferation assessed by EdU uptake” value was “inhibit EC proliferation”. Consider `CN(C)C(=O)c1cc2cnc(Nc3ccc(N4CCNCC4)cn3)nc2n1C1CCCC1` [Ribociclib, 7-cyclopentyl-N,N-dimethyl-2-[(5-piperazin-1-ylpyridin-2-yl)amino]pyrrolo[2,3-d]pyrimidine-6-carboxamide], for which the “EC proliferation assessed by EdU uptake” value is given as “inhibit EC proliferation”.
